According to patent publication US20190270778A1, “Cyclic Peptides As C5a Receptor Antagonists” (priority 2016, published 2019):
Numbered stars: 1 amine (or outer) side, 2 acyl side, 3 side chain; on linkers, the order of the positions; unused ones are H or OH. Bridge positions count the residues as written; N and C are the ends. Square brackets hold non-standard residues; d marks the D form. Peptide text beside a SMILES is read from it. * marks the point of attachment. X2 = O=C([C@@H](C[C@H]1CC[C@@H](O)CC1)N[*:1])[*:2]; X1 = CN(CC(=O)O)[C@@H](Cc1ccccc1)C(=O)*; Hyp = O=C(O)[C@@H]1C[C@@H](O)CN1; Orn = NCCC[C@H](N)C(=O)O

How the values were obtained:
[1] = target: T1, C5a receptor (Homo sapiens, UniProt P21730); test: HWB oxidative burst assay (C5a-induced, luminol chemiluminescence); assay type: cell-based
T1 construct: endogenous in cells; host or cells: leukocytes/granulocytes in freshly drawn whole blood of healthy volunteers
T1 sequence (P21730 1-350): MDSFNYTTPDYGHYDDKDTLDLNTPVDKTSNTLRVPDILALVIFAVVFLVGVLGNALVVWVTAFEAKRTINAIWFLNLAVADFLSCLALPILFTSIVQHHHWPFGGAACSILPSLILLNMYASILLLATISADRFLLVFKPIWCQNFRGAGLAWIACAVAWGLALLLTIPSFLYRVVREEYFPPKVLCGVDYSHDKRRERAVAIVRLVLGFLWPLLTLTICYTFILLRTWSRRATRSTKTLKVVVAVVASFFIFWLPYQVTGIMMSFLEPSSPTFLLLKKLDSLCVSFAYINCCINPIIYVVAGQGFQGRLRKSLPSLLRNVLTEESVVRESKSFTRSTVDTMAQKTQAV
Experimental: Inhibition of oxidative burst activity was determined in HWB primed with TNF-α and stimulated with C5a. C5a-induced oxidative burst response (generation of reactive oxygen species) was then detected in the presence of luminol as a chemiluminescent signal.
On the day of assay, HWB was collected from a healthy, non-medicated volunteer into tubes containing 3.8% sodium citrate (final sodium citrate concentration in HWB is 0.38%) and stored in a 37° C. water bath until use (no longer than 60 minutes).
To start the assay, TNF-α was added to HWB to a final concentration of 1.0 nM and 68 μL of this HWB/TNF-α mix was transferred to each well of a 384-well white Optiplate (assay plate). 4.0 μL of various concentrations of test agent were then added to the assay plate and mixed twice gently by aspirating up and down. The assay plate was then placed on a thermoshaker (JITTERBUG-4) and incubated at 37° C. (without shaking). After 60 minutes, C5a (Complement Technology) prepared in luminol (Sigma) was added to the assay plate and mixed twice gently by aspirating up and down. The plate was then placed in a ViewLux 1430 Microplate Imager (Perkin Elmer). After 5 minutes, oxidative burst activity was determined with the ViewLux by measuring luminol-enhanced whole blood chemiluminescence. Final assay conditions were 1.5 mM HEPES pH 7.5, 0.015% BSA, 15% HBSS, 0.85 ng/mL TNFα, 1.0 mM Luminol, C5a 20 nM, 76.5% HWB, 0.15% DMSO and various concentrations of test agent.
The percent (%) effect at each concentration of test agent was then calculated based on and relative to the amount of signal that was produced by positive (i.e. full inhibition of C5a induced oxidative burst) and negative (i.e. completely uninhibited C5a induced oxidative burst) control wells contained within each assay plate. The concentration and % effect values for test agents were plotted and the concentration of test agent required for 50% effect (IC50) was determined with a four-parameter logistic dose response equation (BioBook; IDBS). Kb (nM) was then calculated (BioBook; IDBS) using the equation described by Leff and Dougal (TIPS 1993 14:110-112).

[2] = target: T1, C5a receptor; test: HWB CD11b expression assay (C5a-challenged granulocytes, flow cytometry); assay type: cell-based
Experimental: HWB was collected from healthy, non-medicated volunteers into BD Vacutainer® blood collection tubes with K2EDTA as an anticoagulant. HWB was aliquoted (85 μL/well) in 96-well, deep-well, V-bottom plates and incubated at 37° C. for 30 minutes. Test compounds (5 μL/well) were added to HWB and incubated at 37° C. for 30 minutes. Anti-human CD11b antibody conjugated with APC (BD Biosciences) was added to HWB (5 μL/well) and incubated at 37° C. for additional 30 minutes. HWB was then challenged with human C5a (final 1 nM) for 30 minutes at 37° C. Samples were treated with warm 1× Lyse/Fix buffer (BD Biosciences) to terminate activation and further incubated at 37° C. for 20 minutes to lyse red blood cells. Assay plates were centrifuged at 300×g for 5 minutes, supernatant was aspirated, and cells were washed once with PBS containing 0.5% FBS. Washed cells were resuspended in PBS containing 0.5% FBS and subjected to flow cytometric analysis using an LSRFortessa equipped with a HTS plate loader (BD Biosciences). The granulocyte population was gated for analysis of MF of CD11b staining using FACSDiva version 6.2 (BD Biosciences). Data from 11 compound concentrations (singlicate at each concentration) was normalized as a percentage of control based on the formula:
% of Control=100×(A−B)/(C−B)
where A is MF from wells containing test compound and C5a, B is MF from wells without C5a (background MF from unstimulated samples) and C is MF from wells containing only C5a (maximum MF). Inhibition curves and IC50 values (test compound concentrations which produce 50% inhibition) were determined using the Prism version 5 software (GraphPad). HWB was also stimulated with 11 different concentrations of C5a to construct a responsive curve and to obtain EC50 value (the concentration of C5a that gives half-maximal response) and curve slope using the Prism version 5 software. Kb (nM) was then calculated using the equation described by Leff and Dougal (TIPS 1993 14:110-112).

| SMILES | Kb [1] [nM] | Kb [2] [nM] | Kb ([1]; human whole blood primed with TNF-α, stimulated with C5a 20 nM, Kb calculated from IC50 (Leff and Dougal), read-out: Oxidative burst, Kb) [nM] | Kb ([2]; human whole blood challenged with human C5a 1 nM, granulocyte CD11b mean fluorescence, Kb calculated from IC50 (Leff and Dougal), read-out: CD11b, Kb) [nM] |
| --- | --- | --- | --- | --- |
| N=C(N)NCCC[C@@H]1NC(=O)[C@H](Cc2c[nH]c3ccccc23)NC(=O)[C@@H](C[C@H]2CC[C@@H](O)CC2)NC(=O)[C@@H]2C[C@@H](O)CN2C(=O)[C@@H](NC(=O)[C@H](Cc2ccccc2)NCC(=O)O)CCCNC1=O [Example 1, ((S)-1-(((3R,6S,9S,15S,19R,20aS)-6-((1H-indol-3-yl)methyl)-9-(3-guanidinopropyl)-19-hydroxy-3-(((1s,4S)-4-hydroxycyclohexyl)methyl)-1,4,7,10,16-pentaoxoicosahydropyrrolo[1,2-a][1,4,7,10,13]pentaazacyclooctadecin-15-yl)amino)-1-oxo-3-phenylpropan-2-yl)glycine] | 1.6 | 13.1 | – | – |
| N=C(N)NCCC[C@@H]1NC(=O)[C@H](Cc2c[nH]c3ccccc23)NC(=O)[C@@H](C[C@H]2CC[C@@H](O)CC2)NC(=O)[C@@H]2C[C@@H](OCC(=O)O)CN2C(=O)[C@@H](NC(=O)[C@H](Cc2ccccc2)NCC(=O)O)CCCNC1=O [Example 2, 2-(((3R,6S,9S,15S,19R,20aS)-6-((1H-indol-3-yl)methyl)-15-((S)-2-((carboxymethyl)amino)-3-phenylpropanamido)-9-(3-guanidinopropyl)-3-(((1s,4S)-4-hydroxycyclohexyl)methyl)-1,4,7,10,16-pentaoxoicosahydropyrrolo[1,2-a][1,4,7,10,13]pentaazacyclooctadecin-19-yl)oxy)acetic Acid] | 3 | 28.8 | – | – |
| Cc1cnn(C[C@@H]2NC(=O)[C@@H](C[C@H]3CC[C@@H](O)CC3)NC(=O)[C@@H]3C[C@@H](O)CN3C(=O)[C@@H](NC(=O)[C@H](Cc3ccccc3)NCC(=O)O)CCCNC(=O)[C@H](CCCNC(=N)N)NC2=O)c1 [Example 3, ((S)-1-(((3R,6S,9S,15S,19R,20aS)-9-(3-guanidinopropyl)-19-hydroxy-3-(((1s,4S)-4-hydroxycyclohexyl)methyl)-6-((4-methyl-1H-pyrazol-1-yl)methyl)-1,4,7,10,16-pentaoxoicosahydropyrrolo[1,2-a][1,4,7,10,13]pentaazacyclooctadecin-15-yl)amino)-1-oxo-3-phenylpropan-2-yl)glycine] | 21.6 | 212 | – | – |
| COc1ccc2[nH]cc(C[C@@H]3NC(=O)[C@@H](C[C@H]4CC[C@@H](O)CC4)NC(=O)[C@@H]4C[C@@H](O)CN4C(=O)[C@@H](NC(=O)[C@H](Cc4ccccc4)NCC(=O)O)CCCNC(=O)[C@H](CCCNC(=N)N)NC3=O)c2c1 [Example 4, ((S)-1-(((3R,6S,9S,15S,19R,20aS)-9-(3-guanidinopropyl)-19-hydroxy-3-(((1s,4S)-4-hydroxycyclohexyl)methyl)-6-((5-methoxy-1H-indol-3-yl)methyl)-1,4,7,10,16-pentaoxoicosahydropyrrolo[1,2-a][1,4,7,10,13]pentaazacyclooctadecin-15-yl)amino)-1-oxo-3-phenylpropan-2-yl)glycine] | 3 | 53.8 | – | – |
| N=C(N)NCCC[C@@H]1NC(=O)[C@H](Cc2c[nH]c3ncccc23)NC(=O)[C@@H](C[C@H]2CC[C@@H](O)CC2)NC(=O)[C@@H]2CCCN2C(=O)[C@@H](NC(=O)[C@H](Cc2ccccc2)NCC(=O)O)CCCNC1=O [Example 5, ((S)-1-(((3R,6S,9S,15S,20aS)-6-((1H-pyrrolo[2,3-b]pyridin-3-yl)methyl)-9-(3-guanidinopropyl)-3-(((1s,4S)-4-hydroxycyclohexyl)methyl)-1,4,7,10,16-pentaoxoicosahydropyrrolo[1,2-a][1,4,7,10,13]pentaazacyclooctadecin-15-yl)amino)-1-oxo-3-phenylpropan-2-yl)glycine] | – | – | 27.3 | 300 |
| CN(CC(=O)O)[C@@H](Cc1ccccc1)C(=O)N[C@H]1CCCNC(=O)[C@H](CCCNC(=N)N)NC(=O)[C@H](Cc2c[nH]c3ccccc23)NC(=O)[C@@H](C[C@H]2CC[C@@H](O)CC2)NC(=O)[C@@H]2C[C@@H](O)CN2C1=O [Example 11, N—((S)-1-(((3R,6S,9S,15S,19R,20aS)-6-((1H-indol-3-yl)methyl)-9-(3-guanidinopropyl)-19-hydroxy-3-(((1s,4S)-4-hydroxycyclohexyl)methyl)-1,4,7,10,16-pentaoxoicosahydropyrrolo[1,2-a][1,4,7,10,13]pentaazacyclooctadecin-15-yl)amino)-1-oxo-3-phenylpropan-2-yl)-N-methylglycine] (X1-[Orn][Hyp][X2]WR; lactam 1-C) | 1.2 | – | – | – |
| [2H]c1cc([2H])cc(C[C@H](NCC(=O)O)C(=O)N[C@H]2CCCNC(=O)[C@H](CCCNC(=N)N)NC(=O)[C@H](Cc3c[nH]c4ccccc34)NC(=O)[C@@H](C[C@H]3CC[C@@H](O)CC3)NC(=O)[C@@H]3C[C@@H](O)CN3C2=O)c1 [Example 13, ((S)-1-(((3R,6S,9S,15S,19R,20aS)-6-((1H-indol-3-yl)methyl)-9-(3-guanidinopropyl)-19-hydroxy-3-(((1s,4S)-4-hydroxycyclohexyl)methyl)-1,4,7,10,16-pentaoxoicosahydropyrrolo[1,2-a][1,4,7,10,13]pentaazacyclooctadecin-15-yl)amino)-1-oxo-3-(3,5-dideuterophenyl)propan-2-yl)glycine] | 1.3 | – | – | – |
| N=C(N)NCCC[C@@H]1NC(=O)[C@H](Cc2c[nH]c3ccccc23)NC(=O)[C@@H](C[C@H]2CC[C@@H](O)CC2)NC(=O)[C@@H]2C[C@@H](NCC(=O)O)CN2C(=O)[C@@H](NC(=O)[C@H](Cc2ccccc2)NCC(=O)O)CCCNC1=O [Example 14, ((31R,6S,9S,15S,19R,20aS)-6-((1H-indol-3-yl)methyl)-15-((S)-2-((carboxymethyl)amino)-3-phenylpropanamido)-9-(3-guanidinopropyl)-3-(((1s,4S)-4-hydroxycyclohexyl)methyl)-1,4,7,10,16-pentaoxoicosahydropyrrolo[1,2-a][1,4,7,10,13]pentaazacyclooctadecin-19-yl)glycine] | 1.7 | – | – | – |
| COc1ccc2c(C[C@@H]3NC(=O)[C@@H](C[C@H]4CC[C@@H](O)CC4)NC(=O)[C@@H]4C[C@@H](O)CN4C(=O)[C@@H](NC(=O)[C@H](Cc4ccccc4)NCC(=O)O)CCCNC(=O)[C@H](CCCNC(=N)N)NC3=O)c[nH]c2c1 [Example 15, ((S)-1-(((3R,6S,9S,15S,19R,20aS)-9-(3-guanidinopropyl)-19-hydroxy-3-(((1s,4S)-4-hydroxycyclohexyl)methyl)-6-((6-methoxy-1H-indol-3-yl)methyl)-1,4,7,10,16-pentaoxoicosahydropyrrolo[1,2-a][1,4,7,10,13]pentaazacyclooctadecin-15-yl)amino)-1-oxo-3-phenylpropan-2-yl)glycine] | 2.2 | – | – | – |
